Source: patent publication US20250171518A1, “METHODS FOR PREPARING CELLS FOR ADOPTIVE T CELL THERAPY” (City of Hope, priority 2015, published 2025)

System: CD19 CAR T cells from bulk T cells (PBMC), TCM, naïve/memory T cells
Assay: Generation of memory CD19 CAR T cells from different T cell subsets
Type: cell-based, human
Text: FIGS. 6A-6B: Akt inhibition promotes the generation of memory CD19 CAR T cells from different T cell subsets. […] Resultant CD19 CAR T cells were stained with biotinylated Erbitux (cetuximab), followed by streptavidin-PE for CAR detection and antibodies against CD62L. Percentages of CAR+CD62L+ cells are depicted on the basis of the gating of isotype-stained cells. (B) Percentages of CD62L+CD28+ T cells after gating on CAR+CD8+ from six lines of CD19 CAR T cells derived from two different donors are presented.
Resultant CD19CAR T cells were stained with biotinylated Erbitux (cetuximab), followed by streptavidin-PE for CAR detection and antibodies against CD62L. Cells expressing CD62 represent TCM cells or TSCM cells.
Samples from two donors were used to prepare PBMC, TCM, and TN/TCM/TSCM cell populations.

O=c1[nH]c2ccccc2n1C1CCN(Cc2ccc(-c3nc4cc5[nH]cnc5cc4nc3-c3ccccc3)cc2)CC1 [Akt inhibitor VIII, 1,3-dihydro-1-[1-[[4-(6-phenyl-1H-imidazo[4,5-g]quinoxalin-7-yl)phenyl]methyl]-4-piperidinyl]-2H-benzimidazol-2-one]
percentage of CD62L+ expressing CAR T cells (1 μM Akt inhibitor VIII, 17-21 days, bulk T cells, TCM cells or naïve/memory T cells, FIG. 6A): increases the percentage of CD62L+ expressing CAR T cells | number of CD62L+/CD28+/CAR+ T cells (six cell populations from two donors, 17-21 days with or without Akt inhibitor VIII, FIG. 6B): increased the number of CD62L+/CD28+/CAR+ T cells
